# Test results as given in patent US8987258B2 (priority 2008, dated 2015).
# Molecular target: T1, SIRT1 (Homo sapiens, UniProt Q96EB6)
# T1 sequence (Q96EB6 1-747): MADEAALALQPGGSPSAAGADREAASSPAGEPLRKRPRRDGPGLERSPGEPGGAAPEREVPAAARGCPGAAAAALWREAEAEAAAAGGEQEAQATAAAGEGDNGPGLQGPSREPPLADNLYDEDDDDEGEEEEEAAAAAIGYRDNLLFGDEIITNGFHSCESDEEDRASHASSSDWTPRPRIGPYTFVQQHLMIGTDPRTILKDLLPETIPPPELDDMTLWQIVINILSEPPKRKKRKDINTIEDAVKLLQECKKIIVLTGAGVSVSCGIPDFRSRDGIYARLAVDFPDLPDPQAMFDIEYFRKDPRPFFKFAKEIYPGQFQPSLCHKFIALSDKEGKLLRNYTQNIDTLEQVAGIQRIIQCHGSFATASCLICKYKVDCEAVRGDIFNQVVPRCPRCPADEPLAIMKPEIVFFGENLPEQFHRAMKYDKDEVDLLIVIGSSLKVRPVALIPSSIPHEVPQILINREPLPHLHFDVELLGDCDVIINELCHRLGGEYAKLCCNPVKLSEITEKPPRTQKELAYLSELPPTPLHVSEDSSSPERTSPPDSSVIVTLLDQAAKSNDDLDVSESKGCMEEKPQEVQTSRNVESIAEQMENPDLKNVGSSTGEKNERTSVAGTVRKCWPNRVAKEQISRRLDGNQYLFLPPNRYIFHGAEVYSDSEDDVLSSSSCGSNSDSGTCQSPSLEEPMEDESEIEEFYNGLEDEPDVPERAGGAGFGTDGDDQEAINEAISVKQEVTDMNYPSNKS
# Assay: Mass spectrometry based SIRT1 deacetylase activation assay
# Assay type: biochemical
# Details: for EC1.5 μM: 0.5 μM peptide substrate, 120 μM βNAD+, 10 nM SIRT1, 25 min, 25° C.; for Emax: 25 min, mass spectrometry assay, read-out: % Fold Act. (percent maximum fold activation)
# Excerpt: A mass spectrometry based assay was used to identify modulators of SIRT1 activity. The mass spectrometry based assay utilizes a peptide having 20 amino acid residues as follows: Ac-EE-K(biotin)-GQSTSSHSK(Ac)NleSTEG-K(5TMR)-EE-NH2 (SEQ ID NO: 1) wherein K(Ac) is an acetylated lysine residue and Nle is a norleucine. The peptide is labeled with the fluorophore 5TMR (excitation 540 nm/emission 580 nm) at the C-terminus. The sequence of the peptide substrate is based on p53 with several modifications. In addition, the methionine residue naturally present in the sequence was replaced with the norleucine because the methionine may be susceptible to oxidation during synthesis and purification.
# The mass spectrometry assay is conducted as follows: 0.5 μM peptide substrate and 120 μM βNAD^+ is incubated with 10 nM SIRT1 for 25 minutes at 25° C. in a reaction buffer (50 mM Tris-acetate pH 8, 137 mM NaCl, 2.7 mM KCl, 1 mM MgCl2, 5 mM DTT, 0.05% BSA). Test compounds may be added to the reaction as described above. […] After the 25 minute incubation with SIRT1, 10 μL of 10% formic acid is added to stop the reaction. Reactions are sealed and frozen for later mass spec analysis. Determination of the mass of the substrate peptide allows for precise determination of the degree of acetylation (i.e. starting material) as compared to deacetylated peptide (product).
# A control for inhibition of sirtuin activity is conducted by adding 1 μL of 500 mM nicotinamide as a negative control at the start of the reaction (e.g., permits determination of maximum sirtuin inhibition). A control for activation of sirtuin activity is conducted using 10 nM of sirtuin protein, with 1 μL of DMSO in place of compound, to determine the amount of deacetylation of the substrate at a given timepoint within the linear range of the assay. This timepoint is the same as that used for test compounds and, within the linear range, the endpoint represents a change in velocity.
# For the above assay, SIRT1 protein was expressed and purified as follows. […] The protein was expressed by induction with 1 mM IPTG as an N-terminal His-tag fusion protein at 18° C. overnight and harvested at 30,000×g. Cells were lysed with lysozyme in lysis buffer (50 mM Tris-HCl, 2 mM Tris[2-carboxyethyl]phosphine (TCEP), 10 μM ZnCl2, 200 mM NaCl) and further treated with sonication for 10 min for complete lysis. The protein was purified over a Ni-NTA column (Amersham) and fractions containing pure protein were pooled, concentrated and run over a sizing column (Sephadex S200 26/60 global). The peak containing soluble protein was collected and run on an Ion-exchange column (MonoQ). Gradient elution (200 mM-500 mM NaCl) yielded pure protein. This protein was concentrated and dialyzed against dialysis buffer (20 mM Tris-HCl, 2 mM TCEP) overnight. The protein was aliquoted and frozen at −80° C. until further use.
Structure (SMILES),EC1.5 μM,Emax [%]
Cc1ncoc1C(=O)Nc1cccc2c(=O)cc(-c3ccccc3C(F)(F)F)oc12 [Compound 268],A (EC1-5<1.0),> 200
O=C(Nc1cccc2c(=O)cc(-c3cccc(N4CCOCC4)c3)oc12)c1cnccn1 [Compound 214],B (EC1.5 1-25 μM),< 200
Cn1cc(C(=O)Nc2cccc3c(=O)cc(-c4ccccc4C(F)(F)F)oc23)cn1 [Compound 269],B (EC1.5 1-25 μM),> 200
O=C(Nc1cccc2c(=O)cc(-c3cccnc3)oc12)c1ccccn1 [Compound 216],C (EC1.5>25 μM),< 200
O=C(Nc1cccc2c(=O)cc(-c3cccc(C(F)(F)F)c3)oc12)c1ccccn1 [Compound 225],C (EC1.5>25 μM),< 200
O=C(Nc1cccc2c(=O)cc(-c3cccc(C(F)(F)F)c3)oc12)c1cnccn1 [Compound 205],C (EC1.5>25 μM),< 200
O=C(Nc1cccc2c(=O)cc(-c3ccccc3C(F)(F)F)oc12)c1cccc(CN2CCOCC2)c1 [Compound 328],B (EC1.5 1-25 μM),> 200
O=C(Nc1cccc2c(=O)cc(-c3ccccc3C(F)(F)F)oc12)c1cncc(N2CCOCC2)n1 [Compound 316],A (EC1-5<1.0),> 200
Cn1cnc(C(=O)Nc2cccc3c(=O)cc(-c4ccccc4C(F)(F)F)oc23)c1 [Compound 256],A (EC1-5<1.0),> 200
O=C(Nc1ccccn1)c1cccc2c(=O)cc(-c3cccc(N4CCOCC4)c3)oc12 [Compound 209],C (EC1.5>25 μM),< 200
O=C(Nc1cccc2c(=O)cc(-c3ccccc3F)oc12)c1cscn1 [Compound 279],C (EC1.5>25 μM),< 200
O=C(Nc1cccc2c(=O)cc(-c3ccc(Br)cc3)oc12)c1cscn1 [Compound 232],,< 200
O=C(Nc1cccc2c(=O)cc(-c3ccccc3Cl)oc12)c1ncccn1 [Compound 335],A (EC1-5<1.0),> 200
"O=C(Nc1cccc(CN2CCCC2)n1)c1cccc2c(=O)cc(-c3cccc(C(F)(F)F)c3)oc12 [Compound 243, 4-oxo-N-(6-(pyrrolidin-1-ylmethyl)pyridin-2-yl)-2-(3-(trifluoromethyl)phenyl)-4H-chromene-8-carboxamide]",B (EC1.5 1-25 μM),> 200
COc1ccccc1-c1cc(=O)c2cccc(NC(=O)c3cnccn3)c2o1 [Compound 254],C (EC1.5>25 μM),< 200
O=C(Nc1ccccn1)c1cccc2c(=O)cc(-c3cccc(OC(F)(F)F)c3)oc12 [Compound 211],C (EC1.5>25 μM),< 200
CS(=O)(=O)c1cccc(-c2cc(=O)c3cccc(NC(=O)c4ccccn4)c3o2)c1 [Compound 218],B (EC1.5 1-25 μM),< 200
O=C(Nc1cccc2c(=O)cc(-c3ccccc3Cl)oc12)c1cccc(N2CCCC2)n1 [Compound 325],A (EC1-5<1.0),> 200
O=C(Nc1cccc2c(=O)cc(-c3ccccc3Cl)oc12)c1cccnc1OCC(O)CO (stereo not shown) [Compound 332],B (EC1.5 1-25 μM),> 200
CC(C)c1ccccc1-c1cc(=O)c2cccc(NC(=O)c3cscn3)c2o1 [Compound 287],B (EC1.5 1-25 μM),> 200
O=C(Nc1cccc2c(=O)cc(-c3c(F)cccc3Cl)oc12)c1cnccn1 [Compound 296],A (EC1-5<1.0),> 200

Structure (SMILES),EC1.5 μM,Emax [%]
O=C(Nc1cccc2c(=O)cc(-c3ccccc3Cl)oc12)c1cncc(N2CCOCC2)n1 [Compound 319],A (EC1-5<1.0),> 200
O=C(Nc1cccc2c(=O)cc(-c3ccccc3Cl)oc12)c1cccc(CN2CCOCC2)n1 [Compound 331],A (EC1-5<1.0),> 200
O=C(Nc1cccc2c(=O)cc(-c3ccccc3C(F)(F)F)oc12)c1cccc(N2CCCC2)n1 [Compound 323],A (EC1-5<1.0),> 200
O=C(Nc1cccc2c(=O)cc(-c3cnccc3C(F)(F)F)oc12)c1cnccn1 [Compound 308],B (EC1.5 1-25 μM),> 200
O=C(Nc1cccc2c(=O)cc(-c3ccccc3Cl)oc12)c1cnccn1 [Compound 280],A (EC1-5<1.0),> 200
O=C(Nc1cccc2c(=O)cc(-c3ccccc3OC(F)F)oc12)c1cscn1 [Compound 264],C (EC1.5>25 μM),< 200
CS(=O)(=O)c1cccc(-c2cc(=O)c3cccc(C(=O)Nc4nccs4)c3o2)c1 [Compound 220],C (EC1.5>25 μM),< 200
O=C(Nc1cccc2c(=O)cc(-c3ccccc3C(F)(F)F)oc12)c1ccncn1 [Compound 253],A (EC1-5<1.0),> 200
O=C(Nc1cccc2c(=O)cc(-c3ccccc3Cl)oc12)c1cccc(N2CCCC2)c1 [Compound 329],A (EC1-5<1.0),> 200
Cc1cnc(NC(=O)c2cccc3c(=O)cc(-c4ccccn4)oc23)s1 [Compound 238],C (EC1.5>25 μM),< 200
O=C(Nc1cccc2c(=O)cc(-c3cccc(F)c3Cl)oc12)c1cscn1 [Compound 299],C (EC1.5>25 μM),< 200
Cc1cnc(NC(=O)c2cccc3c(=O)cc(-c4ccccc4Br)oc23)s1 [Compound 236],,< 200
O=C(Nc1cccc2c(=O)cc(-c3ccccc3C(F)(F)F)oc12)c1cccc(N2CCOCC2)c1 [Compound 311],B (EC1.5 1-25 μM),> 200
Cn1nccc1C(=O)Nc1cccc2c(=O)cc(-c3ccccc3C(F)(F)F)oc12 [Compound 257],A (EC1-5<1.0),> 200
O=C(Nc1cccc2c(=O)cc(-c3ccccc3Cl)oc12)c1cccc(CN2CCCC2)n1 [Compound 327],A (EC1-5<1.0),> 200
"O=C(Nc1cccc2c(=O)cc(-c3cccnc3C(F)(F)F)oc12)c1cnccn1 [Compound 306, N-(4-oxo-2-(2-(trifluoromethyl)pyridin-3-yl)-4H-chromen-8-yl)pyrazine-2-carboxamide]",B (EC1.5 1-25 μM),> 200
Cc1ccccc1-c1cc(=O)c2cccc(NC(=O)c3cscn3)c2o1 [Compound 274],C (EC1.5>25 μM),< 200
O=C(Nc1cccc2c(=O)cc(-c3ccccc3C(F)(F)F)oc12)c1cnccn1 [Compound 261],A (EC1-5<1.0),> 200
Cn1ccnc1C(=O)Nc1cccc2c(=O)cc(-c3ccccc3C(F)(F)F)oc12 [Compound 250],A (EC1-5<1.0),> 200
O=C(Nc1nccs1)c1cccc2c(=O)cc(-c3cccc(N4CCOCC4)c3)oc12 [Compound 208],C (EC1.5>25 μM),< 200
O=C(Nc1cccc2c(=O)cc(-c3cccc(C(F)(F)F)c3)oc12)c1cccnc1 [Compound 226],C (EC1.5>25 μM),< 200
